Test results reported in patent publication US20260125382A1, “COMPOUNDS FOR INHIBITING OR DEGRADING CDK2 AND/OR CDK9 AND MEDICINAL USE THEREOF” (KOREA RESEARCH INSTITUTE OF CHEMICAL TECHNOLOGY, priority 2022, published 2026).

Columns and labels:
CDK2 = target: T1, CDK2 (Homo sapiens, UniProt P24941); assay: CDK protein degradation activity (Western blotting), CDK2; type: cell-based; settings: MDA-MB-231 cells, 16 hours, Western blot
T1 construct: endogenous in cells; host or cells: MDA-MB-231
Method in brief: (§1)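 MDA-MB-231 cells treated 16 h with compound at 100 nM, 1 μM or 10 μM, with DMSO as control. Lysates run on SDS-PAGE and immunoblotted for CDK2, CDK9 and tubulin; band levels quantified by densitometry.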

CDK9 = target: T2, CDK9 (Homo sapiens, UniProt P50750); assay: CDK protein degradation activity (Western blotting), CDK9; type: cell-based; settings: MDA-MB-231 cells, 16 hours, Western blot
T2 construct: endogenous in cells; host or cells: MDA-MB-231
T2 sequence (P50750 whole entry): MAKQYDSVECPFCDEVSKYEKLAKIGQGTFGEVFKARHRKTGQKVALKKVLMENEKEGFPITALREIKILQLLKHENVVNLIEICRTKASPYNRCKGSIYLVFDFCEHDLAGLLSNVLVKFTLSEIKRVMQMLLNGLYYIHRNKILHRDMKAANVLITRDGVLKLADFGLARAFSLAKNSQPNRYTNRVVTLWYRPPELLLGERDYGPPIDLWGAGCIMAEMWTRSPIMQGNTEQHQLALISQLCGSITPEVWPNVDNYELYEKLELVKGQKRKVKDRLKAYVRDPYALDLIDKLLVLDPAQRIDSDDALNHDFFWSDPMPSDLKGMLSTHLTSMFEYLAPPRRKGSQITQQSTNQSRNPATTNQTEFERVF
Method in brief: as §1

| Enzyme degradation CDK2 (% remaining) @ 0.1 μM (CDK2) | Enzyme degradation CDK2 (% remaining) @ 1 μM (CDK2) | Enzyme degradation CDK2 (% remaining) @ 10 μM (CDK2) | Enzyme degradation CDK9 (% remaining) @ 0.1 μM (CDK9) | Enzyme degradation CDK9 (% remaining) @ 1 μM (CDK9) | Enzyme degradation CDK9 (% remaining) @ 10 μM (CDK9) | Structure (SMILES) |
| --- | --- | --- | --- | --- | --- | --- |
| 20/20/20% | 20/20/20% | 20/20/20% | 0/0/0% | 0/0/0% | 0/0/0% | O=C1CC[C@H](N2C(=O)c3ccc(OCC(=O)N4CCC5(CC4)CC(N4CCC(c6ccc(Nc7ncnc8c7ncn8[C@H]7C[C@@H](NC(=O)Cc8ccccc8)C7)cc6)CC4)C5)cc3C2=O)C(=O)N1 [Compound 295, N-((1s,3s)-3-(6-((4-(1-(7-(2-((2-(2,6-dioxopiperidin-3-yl)-1,3-dioxoisoindolin-5-yl)oxy)acetyl)-7-azaspiro[3.5]nonan-2-yl)piperidin-4-yl)phenyl)amino)-9H-purin-9-yl)cyclobutyl)-2-phenylacetamide] |
| 20% | 40% | 40% | 10% | 0% | 0% | O=C1CC[C@H](N2C(=O)c3cccc(N4CCC5(CC4)CC(N4CCC(c6ccc(Nc7ncnc8c7ncn8C7CC(NC(=O)Cc8ccccc8)C7)cc6)CC4)C5)c3C2=O)C(=O)N1 (stereo partly drawn) [Compound 297, N-((1s,3s)-3-(6-((4-(1-(7-(2-(2,6-dioxopiperidin-3-yl)-1,3-dioxoisoindolin-4-yl)-7-azaspiro[3.5]nonan-2-yl)piperidin-4-yl)phenyl)amino)-9H-purin-9-yl)cyclobutyl)-2-phenylacetamide] |
| 10/10/10% | 10/10/10% | 10/10/10% | 10% | 0% | 0% | O=C1CC[C@H](N2C(=O)c3ccc(N4CCC5(CC4)CC(N4CCC(c6ccc(Nc7ncnc8c7ncn8[C@H]7C[C@@H](NC(=O)Cc8ccccc8)C7)cc6)CC4)C5)cc3C2=O)C(=O)N1 [Compound 298, N-((1s,3s)-3-(6-((4-(1-(7-(2-(2,6-dioxopiperidin-3-yl)-1,3-dioxoisoindolin-5-yl)-7-azaspiro[3.5]nonan-2-yl)piperidin-4-yl)phenyl)amino)-9H-purin-9-yl)cyclobutyl)-2-phenylacetamide] |
| 30/30/30% | 30/30/30% | 30/30/30% | 0/0/0% | 0/0/0% | 0/0/0% | O=C1CC[C@H](N2C(=O)c3cc(F)c(N4CCC(CN5CCN(c6ccc(Nc7ncnc8c7ncn8C7CC(NC(=O)c8c(Cl)cccc8Cl)C7)cc6)CC5)CC4)cc3C2=O)C(=O)N1 (stereo partly drawn) [Compound 299, 2,6-dichloro-N-((1s,3s)-3-(6-((4-(4-((1-(2-(2,6-dioxopiperidin-3-yl)-6-fluoro-1,3-dioxoisoindolin-5-yl)piperidin-4-yl)methyl)piperazin-1-yl)phenyl)amino)-9H-purin-9-yl)cyclobutyl)benzamide] |
| 10/10/10% | 10/10/10% | 10/10/10% | 10% | 0% | 0% | O=C1CC[C@H](N2C(=O)c3ccc(N4CCN(CC5CCN(c6ccc(Nc7ncnc8c7ncn8[C@H]7C[C@@H](NC(=O)c8c(Cl)cccc8Cl)C7)cc6)CC5)CC4)cc3C2=O)C(=O)N1 [Compound 300, 2,6-dichloro-N-((1s,3s)-3-(6-((4-(4-((4-(2-(2,6-dioxopiperidin-3-yl)-1,3-dioxoisoindolin-5-yl)piperazin-1-yl)methyl)piperidin-1-yl)phenyl)amino)-9H-purin-9-yl)cyclobutyl)benzamide] |
| 30% | 20% | 10% | 70% | 0% | 0% | O=C1CC[C@H](N2C(=O)c3cc(F)c(N4CCN(CC5CCN(c6ccc(Nc7ncnc8c7ncn8C7CC(NC(=O)c8c(Cl)cccc8Cl)C7)cc6)CC5)CC4)cc3C2=O)C(=O)N1 (stereo partly drawn) [Compound 301, 2,6-dichloro-N-((1s,3s)-3-(6-((4-(4-((4-(2-(2,6-dioxopiperidin-3-yl)-6-fluoro-1,3-dioxoisoindolin-5-yl)piperazin-1-yl)methyl)piperidin-1-yl)phenyl)amino)-9H-purin-9-yl)cyclobutyl)benzamide] |
| 20% | 30% | 50% | 20% | 0% | 0% | Cc1cccc(C(=O)NC2CC(n3cnc4c(NCCC5CCN(CC6CCN(c7ccc8nnn([C@H]9CCC(=O)NC9=O)c(=O)c8c7)CC6)CC5)ncnc43)C2)n1 (stereo partly drawn) [Compound 304, N-((1s,3s)-3-(6-((2-(1-((1-(3-(2,6-dioxopiperidin-3-yl)-4-oxo-3,4-dihydrobenzo[d][1,2,3]triazin-6-yl)piperidin-4-yl)methyl)piperidin-4-yl)ethyl)amino)-9H-purin-9-yl)cyclobutyl)-6-methylpicolinamide] |
| 100/100/100% | 100/100/100% | 100/100/100% | 30% | 0% | 10% | Cc1cccc(C(=O)NC2CC(n3cnc4c(NCCC5CCN(CC6CCN(c7cccc8c7C(=O)N([C@H]7CCC(=O)NC7=O)C8=O)CC6)CC5)ncnc43)C2)n1 (stereo partly drawn) [Compound 306, N-((1s,3s)-3-(6-((2-(1-((1-(2-(2,6-dioxopiperidin-3-yl)-1,3-dioxoisoindolin-4-yl)piperidin-4-yl)methyl)piperidin-4-yl)ethyl)amino)-9H-purin-9-yl)cyclobutyl)-6-methylpicolinamide] |
| 0/0/0% | 0/0/0% | 0/0/0% | 0/0/0% | 0/0/0% | 0/0/0% | O=C1CC[C@H](n2nnc3ccc(N4CCC(CN5CCN(c6ccc(Nc7ncnc8c7ncn8C7CC(NC(=O)Cc8ccccc8)C7)cc6)CC5)CC4)cc3c2=O)C(=O)N1 (stereo partly drawn) [Compound 307, N-((1s,3s)-3-(6-((4-(4-((1-(3-(2,6-dioxopiperidin-3-yl)-4-oxo-3,4-dihydrobenzo[d][1,2,3]triazin-6-yl)piperidin-4-yl)methyl)piperazin-1-yl)phenyl)amino)-9H-purin-9-yl)cyclobutyl)-2-phenylacetamide] |
